Reference: patent US8563516B2, “Foxp3 peptide vaccine” (OncoTherapy Science, Inc., priority 2007, dated 2013)
Entries after “also recorded” stand apart in the source; their conditions may differ.

How the values were obtained:
[1] = tested on: peptide-pulsed A24LCL cells or T2 cells; test: In vitro CTL induction by peptide-loaded dendritic cells (summary statements); type: cell-based, human
[2] = tested on: peptide-pulsed T2 cells; test: IFN-gamma ELISA on expanded CTL lines, HLA-A02 peptides; type: cell-based, human; conditions: expanded cells of positive wells, FIG. 3A-D, 3F
Procedure: CTLs were expanded in culture using a similar method as reported by Riddell, et al. (Walter et al., N Engl J Med 333(16): 1038-44, 1995; Riddell et al., Nat Med 2(2): 216-23, 1996 February). A total of 5×10^4 CTLs were resuspended in 25 ml of AIM-V/5% AS with 2 kinds of human B-lymphoblastoid cell lines, inactivated with MMC, in the presence of 40 ng/ml of anti-CD3 monoclonal antibody (Pharmingen). One day after initiating the cultures, 120 IU/ml of IL-2 were added to the cultures. The cultures were fed with fresh AIM-V/5% AS containing 30 IU/ml of IL-2 on days 5, 8 and 11.
(§1) To examine the specific CTL activity, IFN-gamma ELISPOT assay and IFN-gamma ELISA were performed. Briefly, peptide-pulsed A24-LCL, T2 cell (1×10^4/well) or the cells endogenously expressing Foxp3 and HLA molecule was prepared as a stimulator cells. Cultured CTL lines in 48 wells were used as a responder cells. IFN-gamma ELISPOT assay and IFN-gamma ELISA were performed under manufacture procedure.
These cells in the positive wells were expanded and performed IFN-gamma ELISA assay.

[3] = tested on: peptide pulsed T2 cells; test: IFN-gamma ELISPOT: CTL line induced with Foxp3-9-252-WT against T2 cells pulsed with substituted peptide; type: cell-based, human; conditions: FIG. 7A
Procedure: IFN-gamma ELISPOT assay was performed using CTL line induced with Foxp3-9-252-WT peptide as responder cells and T2 cells pulsed Foxp3-9-252-WT or Foxp3-9-252-9V peptide as stimulator cells, respectively. T2 cells without peptide pulse were prepared as control. […] IFN-gamma ELISA assay was performed using CTL line induced with Foxp3-9-252-WT peptide as responder cells (1×10^5 cells/well) and Foxp3-9-252-WT (-solid circle-), Foxp3-9-252-9V (-open circle-) or HIV-A02 (-solid triangle-) peptide pulsed T2 cells as stimulator cells (1×10^4 cells/well). Peptide pulse of stimulator cells was conducted at 37 degree Celsius for 2 hours in each kind of peptide and peptide concentration.
as §1
And then the present inventers examined whether peptide-pulsed stimulator cells using these substitutions were recognized by CTLs generated with Foxp3-9-252-WT peptide.

[4] = tested on: 4T1 breast cancer cells; test: In vivo antitumor effects of vaccination, 4T1 tumor; parameters: species or system BALB/c mice; conditions: 4T1 s.c. day 0, vaccination day 3 and 10, compared with control mice, FIG. 6
Procedure: 1×10^5 4T1 breast cancer cell lines were injected into BALB/c mice on day 0. IFA-conjugated with Foxp3-252_h (-open circle-), Foxp3-252_m (-solid square-), no peptide (-solid triangle-) was injected on day 3 and 10. As control of normal tumor growth, non-vaccinated mice (-x-) were also prepared in this assay.
4T1 cells (1×10^5 per mouse) were injected s.c. into the right flank of BALB/c mice on day 0. Vaccination was done on days 3 and 10 using hFoxp3-252 (KLSAMQAHL: SEQ ID NO: 17) or mFoxp3-252 (KLGAMQAHL: SEQ ID NO: […]) IFA-conjugated peptides.
To examine the antitumor effects with peptide vaccination targeted Foxp3, in vivo therapeutic setting was attempted by using 4T1 tumor cells and BALB/c mice. The 4T1 breast cancer cells were injected s.c. into BALB/c mice on day 0, and then vaccination was done on these mice 3 and 10 days after the tumor challenge.

[5] = tested on: peptide-pulsed T2 cells; test: IFN-gamma ELISPOT on CTLs induced with HLA-A0201 restricted Foxp3 peptides; type: cell-based, human; conditions: FIG. 2A/2B/2C
Description: Monocyte-derived dendritic cells (DCs) were used as antigen-presenting cells (APCs) to induce CTL responses against peptides presented on HLA. DCs were generated in vitro as described elsewhere (Horiguchi S. et al. Cancer Res. 59:2950-6). Specifically, peripheral blood mononuclear cells (PBMCs) isolated from normal volunteer (HLA-A*2402 and/or HLA-A*0201) with Ficoll-Plaque (Pharmacia) solution were separated by adherence to plastic tissue culture dish (Becton Dickinson) so as to enrich them for the monocyte fraction. The monocyte-enriched population was cultured in the presence of 1000 U/ml of GM-CSF (R&D System) and 1000 U/ml of IL-4 (R&D System) in AIM-V medium (Invitrogen) containing 2% heat-inactivated autologous serum (AS). After 7 days in the culture, the cytokine-generated DCs were pulsed with 20 mcg/ml of the synthesized peptides in the presence of 3 mcg/ml of beta2-microglobulin for 4 hrs at 20 degrees C. in AIM-V medium. These peptide-pulsed DCs were then inactivated with mitomycin C (MMC) (30 mcg/ml for 30 mins) and mixed at a 1:20 ratio with autologous CD8+ T cells, obtained by positive selection with CD8 Positive Isolation Kit (Dynal). These cultures were set up in 48-well plates (Corning); each well contained 1.5×10^4 peptide-pulsed DCs, 3×10^5 CD8+ T cells and 10 ng/ml of IL-7 (R&D System) in 0.5 ml of AIM-V/2% AS. Three days later, these cultures were supplemented with IL-2 (CHIRON) to a final concentration of 20 IU/ml. On day 7 and 14, the T cells were further restimulated with the peptide-pulsed autologous DCs. The DCs were prepared each time through the same procedure described above. CTL activity was tested against peptide-pulsed A24LCL cells or T2 cells after the 3rd round of peptide stimulation on day 21.
as §1
Resulting CTLs showing detectable specific CTL activity were shown in FIG. 2A, FIG. 2B and FIG. 2C when performed by IFN-gamma ELISPOT assay.

For “KLSAMQAHL (peptide vaccine) [SEQ ID NO 17]”, the “specific CTL activity” value ([1]; against peptide pulsed target cells) was “significant and specific CTL activity”, the “establishment of CTLs” value ([1]; in vitro stimulation of T-cells by DCs loaded with peptide) was “CTLs were successfully established” and the “IFN-gamma production of CTL lines stimulated with peptide, compared with the control” value [2] was “potent IFN-gamma production”. For the same sequence, the “IFN-gamma production of Foxp3-9-252-WT induced CTLs against peptide pulsed T2 cells” value [3] was “produced IFN-gamma”, the “tumor growth / antitumor effect” value ([4]; listed as Foxp3-252_h) was “tumor growth apparently reduced; also recorded: Significant difference of tumor growth suppression” and the “tumor growth / antitumor effect” value ([4]; listed as hFoxp3-252) was “obviously anti-tumor effects; also recorded: superior to mFoxp3-252 peptide”. The “IFN-gamma production of CTLs stimulated with peptide, compared with the control” value [5] was “potent IFN-gamma production”.
